{
  "source": "patent US20250163169A1",
  "about": "“ANTIBODIES FOR PREVENTING THE CLEAVAGE OF CD95L BY METALLOPROTEASES” (INSTITUT NATIONAL DE LA SANTÉ ET DE LA RECHERCHE MÉDICALE, priority 2022, published 2025)",
  "key": {"[1]": {"test_system": "CD95L-expressing leukemic T cell 1A12", "assay": "Expression level of membrane-bound CD95L on 1A12 cells by flow cytometry", "format": "cell-based", "conditions": "24 h, antibodies 10 pg/mL, GM6001 10 μM", "description": "(§1) FIG. 2. Monoclonal antibodies targeting the Metalloprotease-Cleavage Sites of CD95L (MCSCs). […] Arrows represent putative cleavage site in CD95L sequence. […] Indicated peptides were injected in mice to generate monoclonal antibodies and three different hybridoma were selected regarding their ability to bind CD95L. […] B. Recombinant Ig-CD95L (100 ng) was pre-incubated for 15 min with indicated antibodies (100 pg/mL) and then treated for 1h with the indicated MMPs. The metalloprotease-cleaved fragment of Ig-CD95L (CD95L devoid of its released Ig domain of gp190) was monitored by immunoblotting. C. CD95L-expressing leukemic T cell 1A12 was incubated for 24 h with indicated antibodies ([…]) or the pan-MMP inhibitor GM6001 (10 μM) and the expression level of membrane-bound CD95L was assessed by flow cytometry. D. Supernatants were harvested from cells treated in C and the metalloprotease-cleaved CD95L was dosed by ELISA (Diaclone)."}, "[2]": {"test_system": "s-CD95L release from 1A12 cells", "assay": "Metalloprotease-cleaved CD95L dosed by ELISA in supernatants of 1A12 cells", "format": "cell-based", "conditions": "1A12 cells treated 24 hours, vs isotype (anti-myc 9E10 mAb) control", "description": "as §1"}},
  "data": [
    {"smiles": "CNC(=O)[C@H](Cc1c[nH]c2ccccc12)NC(=O)[C@@H](CC(=O)NO)CC(C)C", "note": "[GM6001, reference compound]", "values": [
      {"measurement": "Expression level of membrane-bound CD95L", "setting": "[1]", "value": "augmentation of m-CD95L"},
      {"measurement": "Concentrations of s-CD95L in supernatant", "setting": "[2]", "value": "significantly reduced"}
    ]}
  ]
}
